We go through 3 compounds from ChEMBL document CHEMBL1201862, “PubChem BioAssay data set” (2004).

Activity calls are given as the source filed them.

The target of experiment [1] is MAP kinase-activated protein kinase 2 (Homo sapiens, UniProt P49137). It counts as functional.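 Note: measured as one member of a kinome-wide kinase panel.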
Experiment [2] deals with Serine/threonine-protein kinase pim-3 (Homo sapiens, UniProt Q86V86). The experiment is classed as functional.
In experiment [3] the target is Misshapen-like kinase 1 (Homo sapiens, UniProt Q8N4C8). The experiment is classed as functional.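 Note: kinome panel screen with MINK as the panel member.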
The target in experiment [4] is Mitogen-activated protein kinase kinase kinase kinase 4 (Homo sapiens, UniProt O95819). The experiment is classed as functional.
The target of experiment [5] is Cytochrome P450 3A4 (Homo sapiens, UniProt P08684). As to conditions: Potency.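 Note: confirmatory qHTS run detecting inhibitors and substrates of CYP3A4.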
Experiment [6] deals with HeLa. Kind of experiment: viability loss in HeLa cells – cell-based, 24 h, cherry-picked samples, cytotoxicity control, dose response (AID 504726).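 Note: potency for cytotoxicity as loss of luminescence signal.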 It counts as functional, Homo sapiens.
Experiment [7] has as its target ORF 73 (Human herpesvirus 8, UniProt O40947). Kind of experiment: KSHV LANA DNA-binding disruption – biochemical, fluorescence polarization, cherry-picked samples, dose response (AID 504725).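 Note: fluorescence polarization of a labeled DNA duplex reporting LANA DNA binding; potency is for inhibitors that block LANA binding to the DNA.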 Also noted: species or system Human gammaherpesvirus 8.
In experiment [8] the target is T1, Insulin-degrading enzyme (Homo sapiens, UniProt P14735).
T1 sequence (P14735 whole entry): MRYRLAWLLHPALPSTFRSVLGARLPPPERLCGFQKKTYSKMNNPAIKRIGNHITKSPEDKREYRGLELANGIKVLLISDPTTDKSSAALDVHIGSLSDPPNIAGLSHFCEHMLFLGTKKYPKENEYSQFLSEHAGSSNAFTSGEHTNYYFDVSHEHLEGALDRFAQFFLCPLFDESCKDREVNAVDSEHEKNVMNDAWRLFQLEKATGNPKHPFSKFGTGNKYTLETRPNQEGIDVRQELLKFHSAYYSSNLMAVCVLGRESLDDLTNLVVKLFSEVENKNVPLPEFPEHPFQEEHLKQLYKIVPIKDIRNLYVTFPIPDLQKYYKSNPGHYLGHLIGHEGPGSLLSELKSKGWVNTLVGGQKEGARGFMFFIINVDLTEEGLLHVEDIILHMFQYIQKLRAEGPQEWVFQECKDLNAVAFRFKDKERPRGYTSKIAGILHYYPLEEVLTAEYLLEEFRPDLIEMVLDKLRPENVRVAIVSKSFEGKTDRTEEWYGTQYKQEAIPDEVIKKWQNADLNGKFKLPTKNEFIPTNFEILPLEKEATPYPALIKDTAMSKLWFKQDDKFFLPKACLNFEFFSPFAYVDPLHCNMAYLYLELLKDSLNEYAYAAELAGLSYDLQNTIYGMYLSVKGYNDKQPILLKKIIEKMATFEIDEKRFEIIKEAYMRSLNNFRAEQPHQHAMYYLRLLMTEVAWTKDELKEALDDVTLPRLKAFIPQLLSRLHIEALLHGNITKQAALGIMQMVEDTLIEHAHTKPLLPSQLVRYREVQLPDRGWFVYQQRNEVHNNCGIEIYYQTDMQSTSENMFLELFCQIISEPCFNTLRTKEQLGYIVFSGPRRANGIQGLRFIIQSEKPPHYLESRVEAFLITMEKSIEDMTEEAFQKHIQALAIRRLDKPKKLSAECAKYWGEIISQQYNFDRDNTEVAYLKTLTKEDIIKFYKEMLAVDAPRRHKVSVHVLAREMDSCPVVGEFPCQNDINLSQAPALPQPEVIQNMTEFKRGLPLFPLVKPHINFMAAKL
Kind of experiment: recombinant IDE activation, cell-free – biochemical, fluorescence polarization, counter-screen for IDE activator project, dose response (AID 588681).

Experiment [9] has as its target T1, Insulin-degrading enzyme. Kind of experiment: cellular IDE activation of Abeta substrate cleavage – fluorescence polarization, HEK cells, dose response (AID 588439). It counts as functional, cell-based. (In fluorescence polarisation assays a small probe gives low polarisation when free and higher when bound to something large.)
Experiment [10] deals with HEK293. The experiment can be described thus: membrane integrity loss in HEK cells – cell-based, fluorescence, cytotoxicity control for IDE activator project, dose response (AID 588440).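 Note: cytotoxicity by LDH release measuring loss of membrane integrity.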 It counts as functional. As to conditions: Homo sapiens.
Experiment [11] has as its target T2, Rac GTPase-activating protein 1 (Homo sapiens, UniProt Q9H0H5).
T2 sequence (Q9H0H5 whole entry): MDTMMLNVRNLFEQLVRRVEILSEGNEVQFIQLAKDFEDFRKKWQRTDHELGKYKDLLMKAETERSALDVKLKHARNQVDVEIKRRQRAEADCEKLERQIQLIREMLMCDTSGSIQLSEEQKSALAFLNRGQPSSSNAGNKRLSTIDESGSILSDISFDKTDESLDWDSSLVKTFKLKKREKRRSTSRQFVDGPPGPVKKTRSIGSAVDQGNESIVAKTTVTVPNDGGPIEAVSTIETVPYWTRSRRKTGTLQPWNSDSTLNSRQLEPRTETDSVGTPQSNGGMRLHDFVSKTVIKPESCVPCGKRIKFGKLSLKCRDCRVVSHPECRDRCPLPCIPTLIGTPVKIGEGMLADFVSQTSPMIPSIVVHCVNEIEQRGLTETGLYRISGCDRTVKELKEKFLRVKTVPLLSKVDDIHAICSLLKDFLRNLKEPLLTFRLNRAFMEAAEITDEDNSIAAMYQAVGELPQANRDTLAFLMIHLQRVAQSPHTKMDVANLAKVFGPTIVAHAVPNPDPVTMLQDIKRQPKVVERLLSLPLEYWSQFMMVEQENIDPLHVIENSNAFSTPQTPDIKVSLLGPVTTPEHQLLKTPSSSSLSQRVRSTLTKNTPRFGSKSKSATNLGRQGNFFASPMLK
The experiment can be described thus: blockers of MgcRacGAP-driven Rac1 GTP hydrolysis – biochemical, ADP Hunter fluorescence, primary and confirmatory, confirmation (AID 624330). The experiment is classed as functional.

Experiment [12] deals with T3, Tyrosyl-DNA phosphodiesterase 2 (Homo sapiens, UniProt O95551).
T3 sequence (O95551 whole entry): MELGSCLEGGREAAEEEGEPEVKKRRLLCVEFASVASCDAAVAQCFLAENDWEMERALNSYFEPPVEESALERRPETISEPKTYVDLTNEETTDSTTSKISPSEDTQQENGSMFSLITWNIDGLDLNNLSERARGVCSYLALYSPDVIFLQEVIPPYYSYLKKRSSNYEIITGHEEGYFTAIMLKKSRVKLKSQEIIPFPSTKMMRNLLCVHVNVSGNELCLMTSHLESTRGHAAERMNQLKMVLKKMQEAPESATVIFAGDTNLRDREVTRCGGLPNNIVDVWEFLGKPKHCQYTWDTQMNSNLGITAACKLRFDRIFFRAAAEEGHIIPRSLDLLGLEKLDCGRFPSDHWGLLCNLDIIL
The experiment can be described thus: potency against TDP2 phosphodiesterase activity – biochemical, epi absorbance, IC50, dose response (AID 743297).

Experiment [13] concerns the target T4, Botulinum neurotoxin type A (Clostridium botulinum (strain Hall / ATCC 3502 / NCTC 13319 / Type A), UniProt P0DPI1). Kind of experiment: High-throughput multiplex microsphere dose response for inhibitors of toxin protease, specifically Botulinum neurotoxin light chain A protease, compounds from Cherry Pick 01. The experiment is classed as functional. As to conditions: read-out: EC50_MICROM.

Experiment [14] addresses T4, Botulinum neurotoxin type A. Kind of experiment: High-throughput multiplex microsphere dose response for inhibitors of toxin protease, specifically Botulinum neurotoxin light chain A protease, compounds from Powder Set 01. It counts as functional, Clostridium botulinum A str. ATCC 3502. Conditions: read-out: EC50_MICROM.
Experiment [15] deals with Lethal factor (Bacillus anthracis, UniProt P15917). The experiment can be described thus: High-throughput multiplex microsphere dose response for inhibitors of toxin protease, specifically Lethal Factor protease, compounds from Powder Set 01. As to conditions: read-out: EC50_MICROM. The experiment is classed as functional, Bacillus anthracis str. A2012.
Experiment [16] has as its target T4, Botulinum neurotoxin type A. The experiment can be described thus: Confirmatory FRET assay using full length substrates for Botulinum neurotoxin light chain A protease, with Powder Set01. It counts as functional.

T4 sequence (P0DPI1 2-448 limits assumed): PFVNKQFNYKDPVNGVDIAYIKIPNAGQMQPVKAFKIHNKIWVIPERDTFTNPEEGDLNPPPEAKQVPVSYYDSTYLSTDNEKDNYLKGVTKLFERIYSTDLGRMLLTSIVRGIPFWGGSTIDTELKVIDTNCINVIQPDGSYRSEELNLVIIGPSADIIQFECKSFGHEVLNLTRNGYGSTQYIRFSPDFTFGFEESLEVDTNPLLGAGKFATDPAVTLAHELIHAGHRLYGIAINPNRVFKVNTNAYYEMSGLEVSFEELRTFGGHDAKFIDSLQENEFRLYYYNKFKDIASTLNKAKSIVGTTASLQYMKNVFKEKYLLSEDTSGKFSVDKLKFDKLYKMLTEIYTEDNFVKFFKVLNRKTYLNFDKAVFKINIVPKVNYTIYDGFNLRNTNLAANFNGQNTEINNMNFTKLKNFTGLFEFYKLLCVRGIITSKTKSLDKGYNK
Sequence of Cytochrome P450 3A4 (P08684 whole entry): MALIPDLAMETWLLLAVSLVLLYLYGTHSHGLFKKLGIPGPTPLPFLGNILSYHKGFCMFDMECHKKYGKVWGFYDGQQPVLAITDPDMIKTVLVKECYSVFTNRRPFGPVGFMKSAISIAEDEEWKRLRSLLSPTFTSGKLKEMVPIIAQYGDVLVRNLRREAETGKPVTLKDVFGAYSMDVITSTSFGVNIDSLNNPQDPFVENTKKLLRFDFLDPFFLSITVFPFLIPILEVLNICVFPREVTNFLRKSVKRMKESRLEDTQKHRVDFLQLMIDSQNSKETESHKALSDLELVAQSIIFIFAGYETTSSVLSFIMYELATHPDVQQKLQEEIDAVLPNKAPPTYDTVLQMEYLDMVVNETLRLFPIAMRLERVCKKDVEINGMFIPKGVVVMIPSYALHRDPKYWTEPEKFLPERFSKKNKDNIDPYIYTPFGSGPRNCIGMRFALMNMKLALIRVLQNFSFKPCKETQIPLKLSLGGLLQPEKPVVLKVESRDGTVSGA
Sequence of Mitogen-activated protein kinase kinase kinase kinase 4 (O95819 whole entry): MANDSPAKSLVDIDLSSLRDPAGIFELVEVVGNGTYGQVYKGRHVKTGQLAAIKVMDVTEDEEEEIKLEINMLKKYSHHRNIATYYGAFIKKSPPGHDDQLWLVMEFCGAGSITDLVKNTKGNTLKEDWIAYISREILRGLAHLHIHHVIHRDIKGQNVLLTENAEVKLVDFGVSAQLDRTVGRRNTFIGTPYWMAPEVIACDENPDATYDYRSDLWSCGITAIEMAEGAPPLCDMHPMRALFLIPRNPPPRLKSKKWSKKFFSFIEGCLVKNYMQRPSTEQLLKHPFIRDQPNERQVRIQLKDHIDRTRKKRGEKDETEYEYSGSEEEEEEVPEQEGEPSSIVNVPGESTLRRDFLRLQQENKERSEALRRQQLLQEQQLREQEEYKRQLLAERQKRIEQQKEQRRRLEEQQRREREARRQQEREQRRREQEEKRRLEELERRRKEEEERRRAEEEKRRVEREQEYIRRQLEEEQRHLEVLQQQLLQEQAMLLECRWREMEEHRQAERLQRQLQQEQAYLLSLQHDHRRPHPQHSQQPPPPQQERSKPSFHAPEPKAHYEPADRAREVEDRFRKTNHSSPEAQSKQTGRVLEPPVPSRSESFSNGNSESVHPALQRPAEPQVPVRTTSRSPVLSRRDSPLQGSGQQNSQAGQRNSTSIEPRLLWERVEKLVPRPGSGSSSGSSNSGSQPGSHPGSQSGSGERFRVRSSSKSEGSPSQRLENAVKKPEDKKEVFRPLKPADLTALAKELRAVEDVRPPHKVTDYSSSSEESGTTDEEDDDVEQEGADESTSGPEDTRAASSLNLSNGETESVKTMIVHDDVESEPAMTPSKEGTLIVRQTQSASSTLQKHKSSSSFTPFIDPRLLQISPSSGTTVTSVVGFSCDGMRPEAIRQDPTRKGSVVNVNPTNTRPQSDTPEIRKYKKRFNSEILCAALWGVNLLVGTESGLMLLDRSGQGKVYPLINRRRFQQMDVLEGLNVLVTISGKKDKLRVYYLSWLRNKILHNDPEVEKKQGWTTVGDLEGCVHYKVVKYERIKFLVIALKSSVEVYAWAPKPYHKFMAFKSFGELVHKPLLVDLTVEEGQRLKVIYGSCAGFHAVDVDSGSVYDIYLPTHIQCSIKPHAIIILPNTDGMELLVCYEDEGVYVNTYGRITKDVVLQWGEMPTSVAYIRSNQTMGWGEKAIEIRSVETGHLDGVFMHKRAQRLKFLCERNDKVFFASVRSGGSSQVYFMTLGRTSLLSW
Sequence of MAP kinase-activated protein kinase 2 (P49137 whole entry): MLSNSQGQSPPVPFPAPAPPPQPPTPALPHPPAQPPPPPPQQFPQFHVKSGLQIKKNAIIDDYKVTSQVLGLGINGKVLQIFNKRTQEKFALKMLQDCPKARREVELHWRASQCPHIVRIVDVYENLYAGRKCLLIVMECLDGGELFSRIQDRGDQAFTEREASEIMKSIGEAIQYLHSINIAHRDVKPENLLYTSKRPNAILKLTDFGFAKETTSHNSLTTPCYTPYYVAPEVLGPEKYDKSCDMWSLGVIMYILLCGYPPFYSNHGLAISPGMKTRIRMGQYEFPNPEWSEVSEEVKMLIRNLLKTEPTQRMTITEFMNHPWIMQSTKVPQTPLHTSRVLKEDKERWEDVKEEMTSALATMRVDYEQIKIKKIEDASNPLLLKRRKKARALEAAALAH
Sequence of Lethal factor (P15917 whole entry): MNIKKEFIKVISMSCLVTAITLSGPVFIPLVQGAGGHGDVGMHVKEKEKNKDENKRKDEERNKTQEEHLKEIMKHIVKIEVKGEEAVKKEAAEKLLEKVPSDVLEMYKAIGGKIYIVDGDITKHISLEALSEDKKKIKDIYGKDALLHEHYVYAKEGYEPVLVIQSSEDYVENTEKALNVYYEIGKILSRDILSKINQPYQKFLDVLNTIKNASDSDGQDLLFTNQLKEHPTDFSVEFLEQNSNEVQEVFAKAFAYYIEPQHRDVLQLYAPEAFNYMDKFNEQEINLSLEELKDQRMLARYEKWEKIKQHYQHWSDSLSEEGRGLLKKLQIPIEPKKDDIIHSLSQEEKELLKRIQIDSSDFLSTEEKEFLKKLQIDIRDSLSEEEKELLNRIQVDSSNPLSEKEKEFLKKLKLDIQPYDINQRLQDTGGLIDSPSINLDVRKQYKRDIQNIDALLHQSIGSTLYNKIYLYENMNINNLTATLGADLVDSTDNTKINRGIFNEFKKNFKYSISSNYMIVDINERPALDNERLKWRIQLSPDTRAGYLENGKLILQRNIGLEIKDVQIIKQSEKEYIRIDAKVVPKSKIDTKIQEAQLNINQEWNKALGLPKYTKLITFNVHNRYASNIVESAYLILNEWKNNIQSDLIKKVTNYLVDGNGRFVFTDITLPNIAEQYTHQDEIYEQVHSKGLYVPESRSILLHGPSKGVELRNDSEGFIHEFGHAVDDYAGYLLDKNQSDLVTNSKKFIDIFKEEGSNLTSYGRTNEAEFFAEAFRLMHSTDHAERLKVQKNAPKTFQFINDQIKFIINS
Sequence of Misshapen-like kinase 1 (Q8N4C8 whole entry): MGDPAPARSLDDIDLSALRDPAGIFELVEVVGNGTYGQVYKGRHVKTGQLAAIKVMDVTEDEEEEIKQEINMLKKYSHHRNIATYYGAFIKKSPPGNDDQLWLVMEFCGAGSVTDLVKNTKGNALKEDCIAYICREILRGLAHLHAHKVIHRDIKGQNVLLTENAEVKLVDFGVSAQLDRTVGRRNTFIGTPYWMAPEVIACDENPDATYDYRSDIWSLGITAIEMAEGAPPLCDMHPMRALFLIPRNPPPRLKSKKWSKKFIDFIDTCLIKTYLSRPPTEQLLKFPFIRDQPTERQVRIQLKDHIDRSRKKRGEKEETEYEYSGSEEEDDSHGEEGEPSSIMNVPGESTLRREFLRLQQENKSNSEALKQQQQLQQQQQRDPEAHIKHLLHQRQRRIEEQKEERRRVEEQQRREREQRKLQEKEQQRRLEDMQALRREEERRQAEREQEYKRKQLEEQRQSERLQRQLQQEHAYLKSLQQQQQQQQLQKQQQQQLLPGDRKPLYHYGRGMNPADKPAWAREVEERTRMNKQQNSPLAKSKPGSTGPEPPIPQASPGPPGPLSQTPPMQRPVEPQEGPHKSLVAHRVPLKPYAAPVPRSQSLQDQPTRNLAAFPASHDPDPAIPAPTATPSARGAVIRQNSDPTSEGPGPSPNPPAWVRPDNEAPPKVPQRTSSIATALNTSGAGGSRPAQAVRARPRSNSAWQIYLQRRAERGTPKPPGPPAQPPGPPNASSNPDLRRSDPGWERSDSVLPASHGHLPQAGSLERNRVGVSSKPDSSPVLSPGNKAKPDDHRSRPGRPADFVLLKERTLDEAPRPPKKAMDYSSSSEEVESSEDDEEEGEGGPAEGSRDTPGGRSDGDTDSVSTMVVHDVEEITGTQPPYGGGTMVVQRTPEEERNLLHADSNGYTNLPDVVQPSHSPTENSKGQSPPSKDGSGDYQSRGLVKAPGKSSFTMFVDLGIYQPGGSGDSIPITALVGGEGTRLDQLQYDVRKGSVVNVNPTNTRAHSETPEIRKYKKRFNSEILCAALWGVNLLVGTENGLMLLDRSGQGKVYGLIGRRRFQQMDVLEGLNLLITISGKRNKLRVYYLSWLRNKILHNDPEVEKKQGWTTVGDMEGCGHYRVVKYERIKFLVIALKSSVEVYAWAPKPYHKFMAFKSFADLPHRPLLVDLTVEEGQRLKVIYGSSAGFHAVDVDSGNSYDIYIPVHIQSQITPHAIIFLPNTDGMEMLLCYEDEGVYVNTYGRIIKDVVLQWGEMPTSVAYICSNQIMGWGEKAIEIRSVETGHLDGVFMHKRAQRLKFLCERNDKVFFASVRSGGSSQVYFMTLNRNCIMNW

Broadly, the Ki is a measure of affinity in units of concentration, obtained from inhibition or displacement. The term AC50 denotes the midpoint of the concentration-response curve, whichever way the signal moves. Take `Oc1ccc(Nc2nc(-c3ccc(Cl)cc3)cs2)cc1`: the Ki in [1] is 7.94 µM (active); in experiment [2], 3.16 µM (active); in experiment [3], 2.51 µM (active); in experiment [4], 1 µM (active). Moreover, the AC50 in experiment [5] was 25.1 µM (inconclusive).

The term IC50 denotes the point on the concentration scale where inhibition reaches its midpoint. As for `C[n+]1c2cc(N)ccc2cc2ccc(N)cc21`, the AC50 in [6] is 7.94 µM (active); in [7] it was 285 nM (active). Moreover, the EC50 in experiment [8] and in [9] was > 54.7 µM (inactive) each time. The IC50 in experiment [10] is > 89.2 µM (inactive); in experiment [11], 97.5 µM (active); in experiment [12] it was > 128 µM (inactive).

On to `O=C(Nc1ccc2nc(-c3cccs3)c(-c3cccs3)nc2c1)NC1CC1`, for which the EC50 in experiment [13] is 12.3 µM (active); in experiment [14], 1.5 µM (active); in experiment [15] it was 1.6 µM (active); in experiment [16], 600 nM (active).
